Patent publication US20090221523A1 (priority 2005, published 2009)
Values after ≈ are worked out from the molar mass of the structure shown. Like-named read-outs stand apart in the source and are kept apart here. Marks after values point to notes of the source that are not given here.

Tests used:
[1] = test system: HSV-1 strain F; test: microbe, parasite or virus in culture; assay type: cell-based, herpes simplex virus; details: Human alphaherpesvirus 1, HFF
[2] = test system: HSV-1 TK− strain DM2.1; test: microbe, parasite or virus in culture; assay type: cell-based, herpes simplex virus; details: Human alphaherpesvirus 1, HFF
[3] = test system: CV strain delta crmA (TK+); test: microbe, parasite or virus in culture; assay type: cell-based; details: Cowpox virus, Vero, read-out: CV delta crmA EC50 (TK+)
[4] = test system: CV strain TK:GFP lacZ (TK−); test: microbe, parasite or virus in culture; assay type: cell-based; details: Cowpox virus, Vero, read-out: CV TK:GFP lacZ EC50 (TK−)
[5] = test system: HSV-1 strain E377; set-up: species or system BALB/c mice; details: mouse, in vivo
[6] = in vitro; details: human
[7] = test system: vaccinia virus (Copenhagen Strain); test: microbe, parasite or virus in culture; assay type: cell-based
[8] = test system: cowpox virus (Brighton strain); test: microbe, parasite or virus in culture; assay type: cell-based; details: HFF, read-out: CV (Brighton) EC50
[9] = test system: HFF cells; test: cells; assay type: cell-based; details: Homo sapiens, 72 h, read-out: IC50, 50% inhibition of cell proliferation
[10] = test system: vaccinia IHD strain; set-up: species or system BALB/c mice; details: mouse, in vivo
[11] = test system: cowpox Brighton Strain; set-up: species or system BALB/c mice; details: mouse, in vivo
[12] = test system: cowpox Brighton Strain; set-up: species or system BALB/c mice; details: mouse, in vivo; remark: listed apart in the source
[13] = test system: vaccinia WR strain; set-up: species or system BALB/c mice; details: mouse, in vivo
[14] = test system: vaccinia (WR strain); set-up: species or system mice; Mean Lung Virus Titer: unit not given here; details: mouse, in vivo
[15] = test system: vaccinia (HID strain); set-up: species or system mice; Mean Lung Virus Titer: unit not given here; details: mouse, in vivo
[16] = test system: ΔcrmA (TK+) CV strain; test: microbe, parasite or virus in culture; assay type: cell-based; details: Cowpox virus, HFF, read-out: EC50 CV (Δcrm lacZ) TK+
[17] = test system: TK:GFP lacZ (TK−) CV strain; test: microbe, parasite or virus in culture; assay type: cell-based; details: Cowpox virus, HFF, read-out: EC50 CV (TK:gpf lacZ)
[18] = test system: WR strain of VV; test: microbe, parasite or virus in culture; assay type: cell-based; details: Orthopoxvirus vaccinia, HFF, 24 h, read-out: EC50 for inhibiting VV DNA synthesis
[19] = test system: VV strain WR; set-up: species or system BALB/c mice; details: mouse, in vivo, ip, 15 mg/kg
[20] = test system: HFF cells; details: human
[21] = molecular target: purified VV TK (Vaccinia virus, UniProt P68564)
[22] = read-out: EC50 HSV-1 (DM2.1) TK−
[23] = read-out: HSV-1 DM2.1 EC50 (TK−)

Structure (SMILES): Nc1nc2c(ncn2COCCO)c(=O)[nH]1 [ACV, acyclovir]
- EC50 ([1]; read-out: EC50 HSV-1 (F) TK+): 0.3 µg/mL (≈ 1.33 µM)
- EC50 ([1]; read-out: HSV-1 F EC50 (TK+)): 0.35 ± 0.2 µg/mL (≈ 1.55 µM)
- EC50 [2, 22]: > 100 µg/mL
- EC50 [2, 23]: > 100 µg/mL
- EC50 [3]: > 30 µg/mL
- EC50 [4]: > 30 µg/mL
- Mortality % [5]: 0%
- Mortality No. dead/total no. [5]: 0/15
- CC50 [6]: > 100 µg/mL

Structure (SMILES): Nc1ncnc2c1ncn2[C@@H]1O[C@H](CO)[C@@H](O)[C@@H]1O [AraA, vidarabine]
- EC50 ([1]; read-out: HSV-1 F EC50 (TK+)): 6.4 ± 3.4 µg/mL (≈ 23.9 µM)
- EC50 [2, 23]: 4.9 µg/mL (≈ 18.3 µM)
- EC50 [3]: 0.91 ± 0.005 µg/mL (≈ 3.41 µM)
- EC50 [4]: 0.78 ± 0.2 µg/mL (≈ 2.92 µM)
- CC50 [6]: > 100 µg/mL

Structure (SMILES): O=c1[nH]c(=O)n([C@@H]2O[C@H](CO)[C@@H](O)[C@@H]2O)cc1/C=C/Br [BVAU, sorivudine]
- EC50 ([1]; read-out: HSV-1 F EC50 (TK+)): 0.05 ± 0.02 µg/mL (≈ 0.143 µM)
- EC50 [2, 23]: > 100 µg/mL
- EC50 [3]: > 30 µg/mL
- EC50 [4]: > 30 µg/mL
- CC50 [6]: > 100 µg/mL

Structure (SMILES): O=c1[nH]c(=O)n([C@H]2C[C@H](O)[C@@H](CO)O2)cc1/C=C/Br [BVDU, brivudin]
- EC50 ([1]; read-out: HSV-1 F EC50 (TK+)): 0.09 µg/mL (≈ 0.27 µM)
- EC50 [2, 23]: 100 µg/mL (≈ 300 µM)
- EC50 [3]: > 30 µg/mL
- EC50 [4]: > 30 µg/mL
- CC50 [6]: > 100 µg/mL

Structure (SMILES): O=c1[nH]c(=O)n([C@H]2C[C@H](O)[C@@H](CO)O2)cc1Br [BrdU, 5-bromodeoxyuridine]
- EC50 ([1]; read-out: HSV-1 F EC50 (TK+)): 1.6 ± 0.2 µg/mL (≈ 5.21 µM)
- EC50 [2, 23]: 39 ± 6.3 µg/mL (≈ 127 µM)
- EC50 [3]: 0.37 µg/mL (≈ 1.2 µM)
- EC50 [4]: 19 µg/mL (≈ 61.9 µM)
- CC50 [6]: > 100 µg/mL

Structure (SMILES): Nc1ccn(C[C@@H](CO)OCP(=O)(O)O)c(=O)n1 [CDV, cidofovir]
- VV (Copenhagen) EC50 [7]: 3.3 ± 0.3 µg/mL
- EC50 ([7]; Orthopoxvirus vaccinia, HFF, read-out: VV (Copenhagen) EC50): 3 µg/mL (≈ 10.7 µM)
- EC50 [8]: 4.4 ± 0.6 µg/mL (≈ 15.8 µM)
- IC50 [9]: 20 ± 7 µg/mL (≈ 71.6 µM)
- Mortality Number [10]: 0/15
- Mortality Percent [10]: 0%
- Mortality % ([10]; ip, 15 mg/kg): 0%
- Mortality No. dead/total no. ([10]; ip, 15 mg/kg): 0/15
- Mortality Number [11]: 0/15
- Mortality Percent [11]: 0%
- Mortality % ([11]; ip, 15 mg/kg): 0%
- Mortality No. dead/total no. ([11]; ip, 15 mg/kg): 0/15
- Number of Survivors [12]: 10/10
- Number of Survivors [13]: 10/10
- MDD (mean day of death of mice that died prior to day 21) [14]: 8.0 days
- Mean Lung Virus Titer [14]: 7.0 ± 0.2
- Survivors/Total [14]: 9/10***
- MDD, mean day of death [15]: >21*** day
- Mean Lung Virus Titer [15]: 4.7 ± 0.6
- Survivors/Total [15]: 10/10***
- EC50 ([1]; read-out: EC50 HSV-1 (F) TK+): 1.5 ± 1.1 µg/mL (≈ 5.37 µM)
- EC50 ([1]; read-out: HSV-1 F EC50 (TK+)): 1.5 ± 1.1 µg/mL (≈ 5.37 µM)
- EC50 [2, 22]: 1.5 ± 1.4 µg/mL (≈ 5.37 µM)
- EC50 [2, 23]: 1.5 ± 1.4 µg/mL (≈ 5.37 µM)
- EC50 [3]: 16.1 ± 0.3 µg/mL (≈ 57.7 µM)
- EC50 [4]: 3.3 ± 2.3 µg/mL (≈ 11.8 µM)
- EC50 [16]: 3.5 ± 3.3 µg/mL (≈ 12.5 µM)
- EC50 [17]: 4.2 ± 3.9 µg/mL (≈ 15 µM)
- EC50 [18]: 3 µg/mL (≈ 10.7 µM)
- Mortality % [19]: 0%
- Mortality No. dead/total no. [19]: 0/15
- CC50 [20]: >100 ± 0 µg/mL
- Toxicity CC50 [20]: >100 ± 0 µg/mL
- Vmax [21]: <0.025 µM/min/mg
- CC50 [6]: > 100 µg/mL

Structure (SMILES): Nc1nc(=O)n([C@@H]2O[C@H](CO)[C@@H](O)[C@@H]2F)cc1I [FIAC, fiacitabine]
- EC50 ([1]; read-out: HSV-1 F EC50 (TK+)): 0.06 ± 0.02 µg/mL (≈ 0.162 µM)
- EC50 [2, 23]: 8 ± 1.3 µg/mL (≈ 21.6 µM)
- EC50 [3]: 18 ± 0.25 µg/mL (≈ 48.5 µM)
- EC50 [4]: 9.2 ± 3.7 µg/mL (≈ 24.8 µM)
- Vmax [21]: <0.14 µM/min/mg
- CC50 [6]: > 100 µg/mL
